# Measured values taken from article PMC12004451, “Characterization of the Two-Domain Peptide Binding Mechanism of the Human CGRP Receptor for CGRP and the Ultrahigh Affinity ssCGRP Variant” (Biochemistry, 2025).
# Ends that are not written are not given here.
# What was measured:
# [1] = cited from earlier work
# Source text: Our analysis of the ssCGRP agonist and its truncated antagonist forms advance our understanding of their potential as long-acting therapeutics. It is widely accepted that long residence time is a desirable property of drugs.[61],[62] This is particularly true for antagonists, but there can also be value in long residence time GPCR agonists.[63],[64] […] The ssCGRP(8-37) antagonist has a CGRPR residence-time longer than the plasma half-life and the ssCGRP agonist can signal for longer than t ...
# [2] = system: CGRPR (CLR:RAMP1) in COS-7 cells; assay: CAMYEL cAMP biosensor competition assay with N-terminal TMD-binding agonist AM(13-36); type: cell-based, human; conditions: 30 μM, end point cAMP biosensor assay
# Experimental: COS-7 cells were seeded in a 96-well white plate (Corning; Costar 3917) with a density of 20,000 cell/well, 100 μL/well, and incubated at 37 °C and 5% CO2 for 24 h. Cells were transiently transfected with 250 ng DNA total with 25 ng CLR, 25 ng RAMP, 125 ng CAMYEL biosensor, 75 ng empty pcDNA3.1(+) vector, and 375 ng branched PEI per well. Transfected cells were incubated at 37 °C and 5% CO2. […] The preincubation was followed by addition of coelenterazine h (10 μM) and simultaneous addition of 30 μM AM(13-36) agonist and antagonist as indicated, and incubated for 1 h at room temperature in total volume of 50 μL. Emissions at 475 and 535 nm were read in a PHERAstar FS plate reader (BMG Labtech, Ortenberg, Germany). The buffer control (no ligand) was subtracted from each data set and plotted with the corresponding 475/535 BRET ratio in GraphPad Prism.
# [3] = system: calcitonin receptor (CTR) ECD; conditions: cited from earlier work
# Source text: Similar to ssCGRP, the C-terminal segment of sCT has increased affinity for the receptor ECD, bein ...
molecule,measurement,setting,value
"CC(C)C[C@H](NC(=O)CNC(=O)[C@H](C)NC(=O)[C@H](CC(C)C)NC(=O)[C@H](CCCNC(=N)N)NC(=O)[C@H](Cc1cnc[nH]1)NC(=O)[C@@H](NC(=O)[C@@H](NC(=O)[C@@H]1CSSC[C@H](NC(=O)[C@H](C)N)C(=O)N[C@@H](CC(=O)O)C(=O)N[C@@H]([C@@H](C)O)C(=O)N[C@@H](C)C(=O)N[C@@H]([C@@H](C)O)C(=O)N1)C(C)C)[C@@H](C)O)C(=O)N[C@@H](CC(C)C)C(=O)N[C@@H](CO)C(=O)N[C@@H](CCCNC(=N)N)C(=O)N[C@@H](CO)C(=O)NCC(=O)NCC(=O)N[C@H](C(=O)N[C@H](C(=O)N[C@@H](CCCCN)C(=O)N[C@@H](CC(N)=O)C(=O)N[C@@H](CC(N)=O)C(=O)N[C@@H](Cc1ccccc1)C(=O)N[C@H](C(=O)N1CCC[C@H]1C(=O)N[C@H](C(=O)N[C@@H](CC(N)=O)C(=O)N[C@H](C(=O)NCC(=O)N[C@@H](CO)C(=O)N[C@@H](CCCCN)C(=O)N[C@@H](C)C(=O)N[C@@H](Cc1ccccc1)C(N)=O)C(C)C)[C@@H](C)O)C(C)C)C(C)C)C(C)C [CGRP(1-37), αCGRP(1-37)]",plasma half-life,[1],~20 min
"AM(13-36): C-terminally truncated adrenomedullin agonist comprising the TMD-binding portion (SFGCRFGTCTVQKLAHQIYQFTDK; ends and bridges not checked; cysteine pairing not given here; UniProt P35318 107-130, looked up, fragment)",agonism of the CGRPR (cAMP),[2],agonism
Salmon calcitonin [sCT],higher affinity of C-terminal segment for receptor ECD than hCT,[3],~50 fold
